Results published in patent US20260042731A1, “(2,4-DICHLOROPHENOXY)ACETIC ACID ANALOGS” (CORTEVA AGRISCIENCE LLC, priority 2022, published 2026).
Like-named read-outs stand apart in the source and are kept apart here.

Columns and labels:
[1] = Volatility of compounds measured by thermogravimetric analysis (TGA); type: physicochemical
[2] = system: glyphosate resistant Conyza canadensis (L.) (ERICA), horseweed; test: Postemergence herbicide evaluation, growth of Conyza canadensis (ERICA); type: in vivo; settings: Erigeron canadensis, post-emergence, percent reduction in plant size vs untreated control, read-out: Ave. ERICA; for pest or weed control at 280 g/ha: 280 g ae/ha; for pest or weed control at 560 g/ha: 560 g ae/ha
[3] = system: Abutilon theophrasti (ABUTH), velvetleaf; test: Postemergence herbicide evaluation, growth of Abutilon theophrasti (ABUTH); type: in vivo; settings: Abutilon theophrasti, post-emergence, percent reduction in plant size vs untreated control, read-out: AVE. ABUTH; for pest or weed control at 280 g/ha: 280 g ae/ha; for pest or weed control at 560 g/ha: 560 g ae/ha
[4] = system: Chenopodium album (CHEAL), common lambsquarters; test: Postemergence herbicide evaluation, growth of Chenopodium album (CHEAL); type: in vivo; settings: Chenopodium album, post-emergence, percent reduction in plant size vs untreated control, read-out: Ave. CHEAL; for pest or weed control at 280 g/ha: 280 g ae/ha; for pest or weed control at 560 g/ha: 560 g ae/ha
[5] = system: weeds ABUTH, AMATA, AMBEL, CHEAL, ERICA; test: Postemergence herbicide evaluation, overall average % weed control across ABUTH, AMATA, AMBEL, CHEAL and ERICA; type: in vivo; settings: post-emergence, average over five weeds, read-out: Overall Ave % Weed Control; for pest or weed control at 280 g/ha: 280 g ae/ha; for pest or weed control at 560 g/ha: 560 g ae/ha
[6] = system: Amaranthus rudis (AMATA), tall water hemp; test: Postemergence herbicide evaluation, growth of Amaranthus rudis (AMATA); type: in vivo; settings: Amaranthus tuberculatus, post-emergence, percent reduction in plant size vs untreated control, read-out: Ave. AMATA; for pest or weed control at 280 g/ha: 280 g ae/ha; for pest or weed control at 560 g/ha: 560 g ae/ha
[7] = system: Ambrosia artemisiifolia (AMBEL), common ragweed; test: Postemergence herbicide evaluation, growth of Ambrosia artemisiifolia (AMBEL); type: in vivo; settings: Ambrosia artemisiifolia, post-emergence, percent reduction in plant size vs untreated control, read-out: AVE. AMBEL; for pest or weed control at 280 g/ha: 280 g ae/ha; for pest or weed control at 560 g/ha: 560 g ae/ha

| SMILES | pest or weed control at 280 g/ha ([2]; 168 h, 7 DAA) | pest or weed control at 560 g/ha ([2]; 168 h, 7 DAA) | pest or weed control at 280 g/ha ([2]; 336 h, 14 DAA) | pest or weed control at 560 g/ha ([2]; 336 h, 14 DAA) | pest or weed control at 560 g/ha ([2]; 504 h, 21 DAA) | pest or weed control at 560 g/ha ([3]; 168 h, 7 DAA) | pest or weed control at 560 g/ha ([3]; 336 h, 14 DAA) | pest or weed control at 560 g/ha ([3]; 504 h, 21 DAA) | pest or weed control at 560 g/ha ([4]; 168 h, 7 DAA) | pest or weed control at 560 g/ha ([4]; 336 h, 14 DAA) | pest or weed control at 560 g/ha ([4]; 504 h, 21 DAA) | pest or weed control at 560 g/ha ([5]; 168 h, 7 DAA) | pest or weed control at 560 g/ha ([5]; 336 h, 14 DAA) | pest or weed control at 560 g/ha ([5]; 504 h, 21 DAA) | pest or weed control at 560 g/ha ([6]; 168 h, 7 DAA) | pest or weed control at 560 g/ha ([6]; 336 h, 14 DAA) | pest or weed control at 560 g/ha ([6]; 504 h, 21 DAA) | pest or weed control at 560 g/ha ([7]; 168 h, 7 DAA) | pest or weed control at 560 g/ha ([7]; 336 h, 14 DAA) | pest or weed control at 560 g/ha ([7]; 504 h, 21 DAA) | other results |
| --- | --- | --- | --- | --- | --- | --- | --- | --- | --- | --- | --- | --- | --- | --- | --- | --- | --- | --- | --- | --- | --- |
| O=C(COc1ccc(Cl)cc1Cl)NOC1CCCCO1 (stereo not drawn) [Compound D15] | 72.5% | 80% | 97% | 95% | 100% | 80% | 94.5% | 99.5% | 82.5% | 97.5% | 97.5% | 83.5% | 94.9% | 98.9% | 85% | 95% | 97.5% | 90% | 92.5% | 100% | TGA Data (rate of weight loss, volatility) ([1]; value marked *: decomposition of the material was observed): 6.9* μg/min; pest or weed control at 286 g/ha ([2]; 504 h, 286 g ae/ha, 21 DAA): 99.5%; pest or weed control at 280 g/ha ([3]; 168 h, 7 DAA): 70%; pest or weed control at 280 g/ha ([3]; 336 h, 14 DAA): 87.5%; pest or weed control at 286 g/ha ([3]; 504 h, 286 g ae/ha, 21 DAA): 99.5%; pest or weed control at 280 g/ha ([4]; 168 h, 7 DAA): 77.5%; pest or weed control at 280 g/ha ([4]; 336 h, 14 DAA): 94%; pest or weed control at 286 g/ha ([4]; 504 h, 286 g ae/ha, 21 DAA): 85%; pest or weed control at 280 g/ha ([5]; 168 h, 7 DAA): 76%; pest or weed control at 280 g/ha ([5]; 336 h, 14 DAA): 89.2%; pest or weed control at 286 g/ha ([5]; 504 h, 286 g ae/ha, 21 DAA): 91.3%; pest or weed control at 280 g/ha ([6]; 168 h, 7 DAA): 75%; pest or weed control at 280 g/ha ([6]; 336 h, 14 DAA): 85%; pest or weed control at 286 g/ha ([6]; 504 h, 286 g ae/ha, 21 DAA): 72.5%; pest or weed control at 280 g/ha ([7]; 168 h, 7 DAA): 85%; pest or weed control at 280 g/ha ([7]; 336 h, 14 DAA): 82.5%; pest or weed control at 286 g/ha ([7]; 504 h, 286 g ae/ha, 21 DAA): 100% |
| O=C(COc1ccc(Cl)cc1Cl)NOCc1ccc(Cl)cc1 [Compound D16] | 72.5% | 80% | 92.5% | 97.5% | 99% | 27.5% | 37.5% | 45% | 82.5% | 92.5% | 100% | 67.5% | 81.5% | 87.3% | 75% | 92.5% | 92.5% | 72.5% | 87.5% | 100% | TGA Data (rate of weight loss, volatility) [1]: 0.03658 µg/min; pest or weed control at 280 g/ha ([2]; 504 h, 21 DAA): 100%; pest or weed control at 280 g/ha ([3]; 168 h, 7 DAA): 65%; pest or weed control at 280 g/ha ([3]; 336 h, 14 DAA): 72.5%; pest or weed control at 280 g/ha ([3]; 504 h, 21 DAA): 80%; pest or weed control at 280 g/ha ([4]; 168 h, 7 DAA): 80%; pest or weed control at 280 g/ha ([4]; 336 h, 14 DAA): 94%; pest or weed control at 280 g/ha ([4]; 504 h, 21 DAA): 97.5%; pest or weed control at 280 g/ha ([5]; 168 h, 7 DAA): 74%; pest or weed control at 280 g/ha ([5]; 336 h, 14 DAA): 85.3%; pest or weed control at 280 g/ha ([5]; 504 h, 21 DAA): 92.5%; pest or weed control at 280 g/ha ([6]; 168 h, 7 DAA): 75%; pest or weed control at 280 g/ha ([6]; 336 h, 14 DAA): 92.5%; pest or weed control at 280 g/ha ([6]; 504 h, 21 DAA): 85%; pest or weed control at 280 g/ha ([7]; 168 h, 7 DAA): 77.5%; pest or weed control at 280 g/ha ([7]; 336 h, 14 DAA): 75%; pest or weed control at 280 g/ha ([7]; 504 h, 21 DAA): 100% |
| O=C(COc1ccc(Cl)cc1Cl)NOCc1c(F)cccc1Cl [Compound D17] |  | 80% |  | 100% | 100% | 47.5% | 62.5% | 80% | 77.5% | 98% | 100% | 73.8% | 89.8% | 94.5% | 86.5% | 96% | 92.5% | 77.5% | 92.5% | 100% | TGA Data (rate of weight loss, volatility) [1]: 0.0287 µg/min |
